Data reported in patent US20210155604A1, “QUINAZOLINE COMPOUND SERVING AS EGFR TRIPLE MUTATION INHIBITOR AND APPLICATIONS THEREOF” (EAST CHINA UNIVERSITY OF SCIENCE AND TECHNOLOGY, priority 2018, published 2021).

Experiments:
[1] = target: EGFR L858R/T790M (LR/TM) (Homo sapiens, UniProt P00533, L858R/T790M); assay: ELISA kinase activity detection, EGFR double mutant; type: biochemical; conditions: ELISA-based EGFR-TK assay, ATP 5 μM, mean ± SD
[2] = target: EGFR(WT) (Homo sapiens, UniProt P00533); assay: ELISA kinase activity detection, EGFR(WT); type: biochemical; conditions: ELISA-based EGFR-TK assay, ATP 5 μM; mean ± SD of at least two determinations
Sequence of EGFR(WT) (P00533 25-1210): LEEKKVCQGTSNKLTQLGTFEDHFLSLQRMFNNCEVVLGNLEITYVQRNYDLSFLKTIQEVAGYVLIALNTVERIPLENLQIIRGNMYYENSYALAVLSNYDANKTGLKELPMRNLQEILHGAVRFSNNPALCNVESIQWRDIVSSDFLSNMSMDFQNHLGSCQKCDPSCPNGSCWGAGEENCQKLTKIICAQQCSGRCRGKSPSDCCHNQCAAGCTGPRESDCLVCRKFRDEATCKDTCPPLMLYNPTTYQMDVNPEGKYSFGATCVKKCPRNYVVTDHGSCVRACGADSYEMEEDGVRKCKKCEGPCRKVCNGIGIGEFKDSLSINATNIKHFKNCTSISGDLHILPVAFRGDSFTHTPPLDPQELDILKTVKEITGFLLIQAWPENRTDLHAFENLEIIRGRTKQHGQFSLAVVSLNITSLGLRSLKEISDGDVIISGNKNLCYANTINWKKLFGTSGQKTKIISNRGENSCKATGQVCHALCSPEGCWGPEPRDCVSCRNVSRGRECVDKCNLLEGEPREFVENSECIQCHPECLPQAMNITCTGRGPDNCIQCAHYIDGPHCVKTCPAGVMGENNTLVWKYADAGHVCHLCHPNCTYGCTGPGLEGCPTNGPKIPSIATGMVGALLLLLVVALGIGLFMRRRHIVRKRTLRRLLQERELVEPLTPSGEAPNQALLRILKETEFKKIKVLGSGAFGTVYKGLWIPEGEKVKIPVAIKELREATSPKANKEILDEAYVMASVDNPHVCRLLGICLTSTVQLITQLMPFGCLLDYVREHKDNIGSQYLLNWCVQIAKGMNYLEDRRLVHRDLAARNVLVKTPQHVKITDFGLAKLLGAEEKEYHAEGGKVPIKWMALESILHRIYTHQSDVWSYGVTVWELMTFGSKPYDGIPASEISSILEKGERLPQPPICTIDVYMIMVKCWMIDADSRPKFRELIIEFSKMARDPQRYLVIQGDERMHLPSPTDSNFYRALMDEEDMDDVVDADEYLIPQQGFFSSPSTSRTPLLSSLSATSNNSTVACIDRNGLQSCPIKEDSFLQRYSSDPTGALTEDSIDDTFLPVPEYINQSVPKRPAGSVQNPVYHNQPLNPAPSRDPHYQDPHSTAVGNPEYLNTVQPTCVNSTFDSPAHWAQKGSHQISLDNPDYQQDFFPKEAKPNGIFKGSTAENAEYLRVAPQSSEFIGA
Protocol: (§1) Tyrosine kinase: EGFR(WT) • EGFR^T790M/L858R(LR/TM) • EGFR^T790M/L858R/[…](LR/TM/CS)
(§2) ELISA Kinase Activity Detection
Enzyme-Linked Immunosorbent Assay (ELISA) was used to detect the ability of a kinase to phosphorylate a substrate and calculate the inhibitory effect of a compound on the kinase activity. […]
(§3) The main steps of ELISA are listed as follows: the substrate Poly(Glu, Tyr) 4:1 was diluted with potassium ion-free PBS to 2.5 μg/well, incubated at 37° C. for 12-16 h to coat the ELISA plate for use. An ATP solution (final concentration of 5 μM) diluted with a reaction buffer (50 mM HEPES pH 7.4, 20 mM MgCl2, 0.1 mM MnCl2, 0.2 mM Na3VO4, 1 mM DTT) was added to each well. A compound or solvent control was added, and then a kinase was added to start the reaction at 37° C. in a shaker for 1 h. The plate was washed for three times with T-PBS, and 100 μL of antibody PY99 (diluted in T-PBS containing 5 mg/mL BSA, 1: 500) was added, and incubated in a shaker at 37° C. for 0.5 h. After washing the plate with T-PBS, 100 μL of horseradish peroxidase-labeled goat anti-mouse IgG (diluted in T-PBS containing 5 mg/mL BSA, 1: 2000) was added, and incubated in a shaker at 37° C. for 0.5 h. After washing the plate again, a developing liquid containing 0.03% H2O2, 2 mg/mL OPD (0.1 mol/L, in citrate buffer solution pH 5.4) was added at 100 μL/well, and incubated for 1-10 min at 25° C. in darkness. 50 μL/well of 2 M H2SO4 was added to quench the reaction, and read with a wavelength-tunable microplate reader (SpectraMax Plus384, Molecular Devices) at a wavelength of 490 nm. The IC50 value was obtained from the inhibition curve.

[3] = target: T1, EGFR L858R/T790M/C797S (LR/TM/CS) (Homo sapiens, UniProt P00533, C797S/L858R/T790M); assay: ELISA kinase activity detection, EGFR triple mutant; type: biochemical; conditions: ELISA-based EGFR-TK assay, ATP 5 μM, mean ± SD
T1 construct: purchased BPS Bioscience
T1 sequence (P00533 25-1210 T790M/C797S/L858R): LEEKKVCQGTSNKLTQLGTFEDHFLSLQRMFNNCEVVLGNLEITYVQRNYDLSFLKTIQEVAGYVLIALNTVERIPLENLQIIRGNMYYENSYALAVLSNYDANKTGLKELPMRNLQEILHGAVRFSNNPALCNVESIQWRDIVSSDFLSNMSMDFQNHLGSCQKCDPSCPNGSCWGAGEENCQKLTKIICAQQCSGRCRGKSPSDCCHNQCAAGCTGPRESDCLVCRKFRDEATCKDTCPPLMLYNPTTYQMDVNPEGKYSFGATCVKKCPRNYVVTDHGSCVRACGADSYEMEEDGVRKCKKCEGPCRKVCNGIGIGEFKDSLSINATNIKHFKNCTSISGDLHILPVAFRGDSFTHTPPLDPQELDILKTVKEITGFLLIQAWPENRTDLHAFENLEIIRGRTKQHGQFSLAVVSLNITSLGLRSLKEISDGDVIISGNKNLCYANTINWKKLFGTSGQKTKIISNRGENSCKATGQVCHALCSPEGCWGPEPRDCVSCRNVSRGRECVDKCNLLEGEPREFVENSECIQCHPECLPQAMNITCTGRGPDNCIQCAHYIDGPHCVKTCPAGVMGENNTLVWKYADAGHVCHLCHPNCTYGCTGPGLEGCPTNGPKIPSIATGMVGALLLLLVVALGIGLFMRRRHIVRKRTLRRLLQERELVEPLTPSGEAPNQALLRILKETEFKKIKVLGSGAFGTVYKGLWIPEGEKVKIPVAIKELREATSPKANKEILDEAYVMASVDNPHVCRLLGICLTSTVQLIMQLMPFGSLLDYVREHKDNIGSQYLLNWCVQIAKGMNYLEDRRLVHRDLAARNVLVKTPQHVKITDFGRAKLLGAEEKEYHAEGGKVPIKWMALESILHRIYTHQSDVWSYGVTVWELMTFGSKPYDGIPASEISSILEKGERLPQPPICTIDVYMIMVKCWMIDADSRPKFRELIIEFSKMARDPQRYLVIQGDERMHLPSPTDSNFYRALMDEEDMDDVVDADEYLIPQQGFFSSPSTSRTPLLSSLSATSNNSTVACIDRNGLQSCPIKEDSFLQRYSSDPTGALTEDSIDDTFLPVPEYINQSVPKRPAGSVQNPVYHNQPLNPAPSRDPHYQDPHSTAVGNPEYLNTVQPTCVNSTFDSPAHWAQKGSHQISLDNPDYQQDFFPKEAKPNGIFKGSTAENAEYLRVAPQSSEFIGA
Protocol: as §1, §2
Enzyme-Linked Immunosorbent Assay (ELISA) was used to detect the ability of a kinase to phosphorylate a substrate and calculate the inhibitory effect of a compound on the kinase activity. The used kinase was EGFR L858R/T790M/C797S (purchased from BPS Bioscience).
as §3

Sequence of EGFR L858R/T790M (LR/TM) (P00533 25-1210 T790M/L858R): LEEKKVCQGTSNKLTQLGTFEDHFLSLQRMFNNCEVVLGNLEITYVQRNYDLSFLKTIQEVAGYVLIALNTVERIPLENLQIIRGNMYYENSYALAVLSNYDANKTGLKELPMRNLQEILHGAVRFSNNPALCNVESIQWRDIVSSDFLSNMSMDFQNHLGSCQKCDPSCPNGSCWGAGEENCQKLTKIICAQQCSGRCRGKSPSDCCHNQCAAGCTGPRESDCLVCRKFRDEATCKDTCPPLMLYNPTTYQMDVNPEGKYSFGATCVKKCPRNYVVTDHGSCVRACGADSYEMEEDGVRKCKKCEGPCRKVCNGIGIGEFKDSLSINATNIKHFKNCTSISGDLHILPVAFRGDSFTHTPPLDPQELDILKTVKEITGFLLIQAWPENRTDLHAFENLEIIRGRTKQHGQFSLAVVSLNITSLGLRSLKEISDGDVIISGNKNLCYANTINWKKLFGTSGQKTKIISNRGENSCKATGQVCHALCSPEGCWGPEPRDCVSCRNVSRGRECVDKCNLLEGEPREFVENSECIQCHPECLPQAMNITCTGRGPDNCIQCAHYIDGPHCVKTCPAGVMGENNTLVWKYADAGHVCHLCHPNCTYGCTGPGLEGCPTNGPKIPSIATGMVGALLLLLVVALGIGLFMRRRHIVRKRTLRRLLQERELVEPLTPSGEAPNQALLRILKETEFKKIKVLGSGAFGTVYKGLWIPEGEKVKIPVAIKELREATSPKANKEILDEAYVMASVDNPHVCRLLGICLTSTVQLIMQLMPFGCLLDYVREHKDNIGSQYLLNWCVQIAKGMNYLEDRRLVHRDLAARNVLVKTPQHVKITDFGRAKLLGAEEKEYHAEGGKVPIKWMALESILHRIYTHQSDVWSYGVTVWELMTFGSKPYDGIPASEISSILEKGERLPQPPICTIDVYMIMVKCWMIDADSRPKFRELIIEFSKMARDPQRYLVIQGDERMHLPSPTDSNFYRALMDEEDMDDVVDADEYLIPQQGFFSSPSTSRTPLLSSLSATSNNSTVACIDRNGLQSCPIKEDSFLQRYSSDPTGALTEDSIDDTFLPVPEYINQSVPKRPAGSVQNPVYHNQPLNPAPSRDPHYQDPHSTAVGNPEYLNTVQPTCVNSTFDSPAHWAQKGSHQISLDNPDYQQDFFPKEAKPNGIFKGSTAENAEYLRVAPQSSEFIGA

Compound | IC50 [1] [nM] | IC50 [2] [nM] | IC50 [3] [nM] | melting point [°C]
COc1cc2c(Nc3ccc(NC(=O)c4ccccc4)cc3F)ncnc2cc1OCC1CCN(C)CC1 [Example 1] | 6630 ± 657 | 59.9 ± 1.8 | > 10000 | –
COc1cc2c(Nc3cc(NC(=O)c4ccccc4)ccc3F)ncnc2cc1OCC1CCN(C)CC1 [Example 2, N-(4-Fluoro-3-((6-methoxy-7-((1-methylpiperidin-4-yl)methoxy)quinazolin-4-yl)amino)phenyl)benamide] | > 10000 | 53.7 ± 13.8 | > 10000 | –
COc1cc2c(Nc3ccc(NC(=O)Cc4ccccc4)cc3F)ncnc2cc1OCC1CCN(C)CC1 [Example 3, N-(3-Fluoro-4-((6-methoxy-7-((1-methylpiperidin-4-yl)methoxy)quinazolin-4-yl)amino)phenyl)-2-phenylacetamide] | 7560 ± 1200 | 3.7 ± 1.6 | > 10000 | –
COc1cc2c(Nc3cc(NC(=O)Cc4ccccc4)ccc3F)ncnc2cc1OCC1CCN(C)CC1 [Example 4, N-(4-Fluoro-3-((6-methoxy-7-((1-methylpiperidin-4-yl)methoxy)quinazolin-4-yl)amino)phenyl)-2-phenylacetamide] | > 10000 | 1350 ± 312 | > 10000 | –
COc1cc2c(Nc3ccc(NC(=O)CC4Cc5ccccc5C4)cc3F)ncnc2cc1OCC1CCN(C)CC1 [Example 5] | 1380 ± 235 | 68.3 ± 13 | > 10000 | –
COc1cc2c(Nc3cc(NC(=O)CC4Cc5ccccc5C4)ccc3F)ncnc2cc1OCC1CCN(C)CC1 [Example 6, 2-(2,3-Dihydro-1H-inden-2-yl)-N-(4-fluoro-3-((6-methoxy-7-((1-methylpiperidin-4-yl)methoxy)quinazolin-4-yl)amino)phenyl)acetamide] | 3030 ± 689 | 1100 ± 180 | > 10000 | –
COc1cc2c(Nc3ccc(OCc4ccccc4)cc3)ncnc2cc1OCC1CCN(C)CC1 [Example 7, N-(4-(benzyloxy)phenyl)-6-methoxy-7-((1-methylpiperidin-4-yl)methoxy)quinazolin-4-amine] | 4630 ± 825 | 2.6 ± 1.3 | 5570 ± 1000 | –
COc1cc2c(Nc3ccc(NC(=O)C(C)c4ccccc4)cc3F)ncnc2cc1OCC1CCN(C)CC1 (stereo not drawn) [Example 9, N-(3-Fluoro-4-((6-methoxy-7-((1-methylpiperidin-4-yl)methoxy)quinazolin-4-yl)amino)phenyl)-2-phenylpropionamide] | 2560 ± 800 | 7.7 ± 1.8 | 4810 ± 2920 | 199.6 to 199.8
COc1cc2c(Nc3ccc(NC(=O)C(c4ccccc4)N4Cc5ccccc5C4=O)cc3F)ncnc2cc1OCC1CCN(C)CC1 (stereo not drawn) [Example 12] | 3.2 ± 0.8 | 1.3 ± 0.3 | 14.5 ± 3.3 | –
COc1cc2ncnc(Nc3ccc(NC(=O)c4ccccc4)cc3F)c2cc1OC [Example 15] | > 10000 | – | > 10000 | –
COc1cc2ncnc(Nc3cc(NC(=O)c4ccccc4)ccc3F)c2cc1OC [Example 16] | > 10000 | 137 ± 80.2 | > 10000 | –
COc1cc2ncnc(Nc3ccc(NC(=O)C(c4ccccc4)N4Cc5ccccc5C4=O)cc3F)c2cc1OC (stereo not drawn) [Example 17] | 8.5 ± 0.7 | 16.1 ± 4.8 | 37.1 ± 18.8 | –
COc1cc2c(Nc3cc(NC(=O)C(c4ccccc4)N4Cc5ccccc5C4=O)ccc3F)ncnc2cc1OCC1CCN(C)CC1 (stereo not drawn) [Example 18] | 3.2 ± 1.3 | 1.3 ± 0.6 | 14.5 ± 5.2 | –
COc1cc2c(Nc3ccc(NC(=O)[C@H](c4ccccc4)N4Cc5ccccc5C4=O)cc3F)ncnc2cc1OCC1CCN(C)CC1 [Example 19, (S)—N-(3-Fluoro-4-((6-methoxy-7-((1-methylpiperidin-4-yl)methoxy)quinazolin-4-yl)amino)phenyl)-2-(1-oxoisoindolin-2-yl)-2-phenylacetamide] | 8.6 ± 2.1 | 4.6 ± 2.8 | 7.9 ± 2 | –
COc1cc2c(Nc3ccc(NC(=O)[C@@H](c4ccccc4)N4Cc5ccccc5C4=O)cc3F)ncnc2cc1OCC1CCN(C)CC1 [Example 20, (R)—N-(3-Fluoro-4-((6-methoxy-7-((1-methylpiperidin-4-yl)methoxy)quinazolin-4-yl)amino)phenyl)-2-(1-oxoisoindolin-2-yl)-2-phenylacetamide] | 6.4 ± 1.6 | 3.5 ± 1 | 19.2 ± 3.2 | –
COc1cc2c(Nc3ccc(NC(=O)C(C4CCCCC4)N4Cc5ccccc5C4=O)cc3F)ncnc2cc1OCC1CCN(C)CC1 (stereo not drawn) [Example 21, 2-cyclohexyl-N-(3-fluoro-4-((6-methoxy-7-((1-methylpiperidin-4-yl)methoxy)quinazoline-4-yl)amino)phenyl)-2-(1-oxoisoindolin-2-yl)acetamide] | 180 ± 94.9 | 27.1 ± 12 | 361 ± 123 | –
COc1cc2c(Nc3ccc(NC(=O)C(c4cccc(F)c4)N4Cc5ccccc5C4=O)cc3F)ncnc2cc1OCC1CCN(C)CC1 (stereo not drawn) [Example 22, N-(3-Fluoro-4-((6-methoxy-7-((1-methylpiperidin-4-yl)methoxy)quinazolin-4-yl)amino)phenyl)-2-(3fluorophenyl)-2-(1-oxoisoindolin-2-yl)acetamide] | 6.7 ± 2.2 | 2 ± 0.5 | 13.4 ± 2.7 | –
COc1cc2ncnc(Nc3ccc(NC(=O)C(c4ccccc4)N4Cc5ccccc5C4=O)cc3F)c2cc1OCC1CCN(C)CC1 (stereo not drawn) [Example 23] | 2.4 ± 0.5 | 0.8 ± 0.3 | 18 ± 8.6 | –
COc1cc2ncnc(Nc3ccc(NC(=O)C(c4ccccc4)N4Cc5ccccc5C4=O)cc3F)c2cc1OCN1CCN(C)CC1 (stereo not drawn) [Example 24] | 4.8 ± 0.7 | 1 ± 0.2 | 19.1 ± 4.6 | –
COc1cc2ncnc(Nc3ccc(NC(=O)C(c4ccccc4)N4Cc5ccccc5C4=O)cc3F)c2cc1OCCCN1CCOCC1 (stereo not drawn) [Example 25, (3-Fluoro-4-((7-methoxy-6-(3-morpholinopropoxy)quinazolin-4-yl)amino)phenyl)-2-(1-oxoisoindolin-2-yl)-2-phenylacetamide] | 7.3 ± 1.3 | 1.6 ± 0.3 | 97.5 ± 12.9 | –
COCCOc1cc2ncnc(Nc3ccc(NC(=O)C(c4ccccc4)N4Cc5ccccc5C4=O)cc3F)c2cc1OCCOC (stereo not drawn) [Example 26, (4-((6,7-bis(2-methoxyethoxy)quinazolin-4-yl)amino)-3-fluorophenyl)-2-(1-oxoisoindolin-2-yl)-2-phenylacetamide] | 1.5 ± 0.2 | 0.7 ± 0.1 | 8.5 ± 2.6 | –
COc1cc2nc(N)nc(Nc3ccc(NC(=O)C(c4ccccc4)N4Cc5ccccc5C4=O)cc3F)c2cc1OC (stereo not drawn) [Example 27, (4-((2-amino-6,7-dimethoxyquinazolin-4-yl)amino)-3-fluorophenyl)-2-(1-oxoisoindoline-2-yl)-2-phenylacetamide] | > 10000 | 388 ± 55.3 | > 10000 | –
COc1cc2c(Nc3ccc(NC(=O)C(c4cc(F)ccc4F)N4Cc5ccccc5C4=O)cc3F)ncnc2cc1OCC1CCN(C)CC1 (stereo not drawn) [Example 28, 2-(2,5-Difluorophenyl)-N-(3-fluoro-4-((6-methoxy-7-((1-methylpiperidin-4-yl)methoxy)quinazolin-4-yl)amino)phenyl)-2-(1-oxoisoindolin-2-yl)acetamide] | 35.3 ± 12.1 | 2.5 ± 0.8 | 27.5 ± 17.7 | –
